Results as given in PubChem BioAssay (NCI).
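Results reflect a 48-hour exposure of cells in 96-well plates to compound at five concentrations. GI50 marks 50% less growth. TGI: concentration producing complete growth inhibition.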

What was measured:
Experiment in all cases: DTP human tumour cell line panel, 48 h
UACC-257 melanoma = test system: UACC-257 melanoma
T-47D breast = test system: T-47D breast
DU-145 prostate = test system: DU-145 prostate
MDA-MB-435 = test system: MDA-MB-435
NCI-H23 lung = test system: NCI-H23 lung
MCF7 breast = test system: MCF7 breast
ACHN renal = test system: ACHN renal
NCI-H460 lung = test system: NCI-H460 lung
SK-MEL-28 melanoma = test system: SK-MEL-28 melanoma
CAKI-1 renal = test system: CAKI-1 renal

Structure (SMILES) | GI50 (UACC-257 melanoma) [µM] | TGI (UACC-257 melanoma) [µM] | GI50 (T-47D breast) [µM] | TGI (T-47D breast) [µM] | GI50 (DU-145 prostate) [µM] | TGI (DU-145 prostate) [µM] | GI50 (MDA-MB-435) [µM] | TGI (MDA-MB-435) [µM] | GI50 (NCI-H23 lung) [µM] | TGI (NCI-H23 lung) [µM] | GI50 (MCF7 breast) [µM] | TGI (MCF7 breast) [µM] | GI50 (ACHN renal) [µM] | TGI (ACHN renal) [µM] | GI50 (NCI-H460 lung) [µM] | TGI (NCI-H460 lung) [µM] | GI50 (SK-MEL-28 melanoma) [µM] | TGI (SK-MEL-28 melanoma) [µM] | GI50 (CAKI-1 renal) [µM] | TGI (CAKI-1 renal) [µM]
O=C(NNc1nc2c(F)cccc2n2cccc12)c1cnccn1 | 1.15 | 8.31 | 0.509 | > 34.3 | 0.657 | 24.9 | 0.821 | 26.3 | 0.905 | > 69.8 | 0.412 | 29.6 | 0.25 | 36 | 0.331 | 11 | 0.65 | 15.7 | 0.628 | 16.4
N#CC(=C1SCS1)[N+](=O)[O-] | 1.09 | 7.06 | 0.724 | 20.9 | 2.56 | 10.1 | 1.48 | 16.9 | 7.96 | 34.8 | 1.31 | 17.8 | 2.4 | 13.2 | 2.99 | 10.1 | 3.59 | 15.1 | 2.14 | 16.2
COc1ccc(C(=S)N2CCN(c3cccc(Cl)c3)CC2)cc1 | > 100 | > 100 | 65.8 | > 100 | > 100 | > 100 | 62 | > 100 | > 100 | > 100 | 75 | > 100 | > 100 | > 100 | > 100 | > 100 | > 100 | > 100 | > 100 | > 100
COC1(C(=O)N2Cc3nc(Cl)nc(N[C@H](C)c4cc(N)cc(C(F)(F)F)c4)c3C2)CCOCC1 | 17.2 | 37.3 | 20.8 | 83.5 | 31.7 | > 100 | 18.6 | 41.4 | 19.7 | 72.4 | 17.5 | 49.3 | 18.5 | 71.4 | 18.7 | 40.9 | 16.2 | 30.9 | 25.4 | > 100
O=C(CCN1CCN(c2cnc3ccccc3n2)CC1)c1csc2ccccc12 | > 100 | > 100 | 18.2 | 43.4 | 29.5 | > 100 | > 100 | > 100 | > 100 | > 100 | 18.1 | 48.6 | 19.5 | 42.1 | > 100 | > 100 | 20 | 42.7 | 18.9 | 35.8
C=CC(=O)N[C@H]1C=C(C)c2c(-c3cnc4ccccc4c3)c3c(N)ncnc3n2C1 | 13.4 | > 80.4 | 2.22 | > 100 | 8.05 | > 100 | 17.8 | 67 | 19.6 | 54.5 | 21.1 | > 100 | 0.249 | 16.8 | 18.1 | 72.8 | 19.3 | 68.6 | 1.82 | 17.6
